Test results published in patent US20250049930A1, “PROTAC MOLECULES TARGETING FOXP3 AND USES THEREOF” (CEDARS-SINAI MEDICAL CENTER, priority 2022, published 2025).
Residues, ends and D or L forms follow the SMILES beside them. *: point of attachment. X1 = O=C1CCC(N2C(=O)c3cccc(*)c3C2=O)C(=O)N1; PEG4 = NCCOCCOCCOCCOCCC(=O)O

Columns and labels:
FoxP3 [1] = target: T1, FoxP3 (Mus musculus, UniProt Q99JB6); experiment: FoxP3 in CD4+ cells of mouse splenocytes treated in vitro, flow cytometry; format: cell-based
T1 construct: from tissue; host or cells: peripheral blood and spleen of mice
T1 sequence (Q99JB6 1-429): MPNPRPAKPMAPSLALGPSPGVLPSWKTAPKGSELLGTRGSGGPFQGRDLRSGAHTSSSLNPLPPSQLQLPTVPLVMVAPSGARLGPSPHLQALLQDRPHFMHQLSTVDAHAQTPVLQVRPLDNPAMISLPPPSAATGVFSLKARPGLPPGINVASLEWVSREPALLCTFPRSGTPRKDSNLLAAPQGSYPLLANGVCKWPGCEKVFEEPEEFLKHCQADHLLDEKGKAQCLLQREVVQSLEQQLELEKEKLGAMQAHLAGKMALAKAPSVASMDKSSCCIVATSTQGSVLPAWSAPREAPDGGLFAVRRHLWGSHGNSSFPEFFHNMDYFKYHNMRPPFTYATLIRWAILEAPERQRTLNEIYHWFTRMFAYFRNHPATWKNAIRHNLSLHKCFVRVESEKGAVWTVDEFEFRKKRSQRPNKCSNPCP
Procedure: FIGS. 2A-2E depict that a proteolysis-targeting chimera (PROTAC) targeting FoxP3 (PF) degraded FoxP3 in vitro and in vivo. P-FoxP3 forms a ternary complex with cereblon and FoxP3. Surface plasmon resonance (SPR) assay was used to measure the equilibrium dissociation constant (KD) for the ternary complex consisting of cereblon, P-FoxP3 and FoxP3 (FIG. 2A). SPR assay was used to measure the KD for the binary complex consisting of cereblon and P-FoxP3 (FIG. 2B). Mouse splenocytes were treated in vitro with varying PF concentrations and percent of CD4+ cells staining for intracellular FoxP3 was assessed by flow cytometry. (FIG. 2C). […] 72 hours later, FoxP3 positive CD4+ cells in peripheral blood and spleen were assessed by flow cytometry (FIG. 2D). FoxP3 positive CD4+ cells in peripheral blood were assessed by flow cytometry at various timepoints following PF administration (FIG. 2E). […]
To determine if PF results in the degradation of FoxP3, mouse splenocytes were treated in vitro with varying concentrations of PF and percent of CD4+ cells staining for intracellular FoxP3 was assessed by flow cytometry. […] 72 hours later, FoxP3 positive CD4+ cells in peripheral blood and spleen were assessed by flow cytometry. […] To understand the time course of FoxP3 decrease, serial blood draws were assessed after a single injection of PF (FIG. 2E). […]

[2] = target: ternary complex consisting of cereblon, FoxP3, and P-FoxP3 (Homo sapiens, UniProt Q96SW2+Q9BZS1); experiment: SPR assay, ternary complex cooperativity; format: binding
Procedure: The SPR assay for ternary complex cooperativity was performed by BOC Sciences who provided the following details: Various concentrations of cereblon were dissolved in water and manually printed onto the 47 nm gold-coated PlexArray Nanocapture Sensor Chip (Plexera Bioscience, Seattle, WA) at 40% humidity. Each concentration was printed in replicate, and each spot contained […] of sample solution. The chip was incubated overnight in 80% humidity at 4° C., and rinsed with 10×PBST for 10 minutes, 1×PBST for 10 minutes, and deionized water twice for 10 minutes. The chip was then blocked with 5% non-fat milk in water overnight, washed as before, and then dried under a stream of nitrogen.
SPR imaging measurements were performed with PlexAray HT (Plexera Bioscience, Seattle, WA, US). Buffers and samples were injected by a non-pulsatile piston pump into the 30 μL flow cell. […] The signal changes after binding and washing (in AU) are recorded as the assay value. Selected protein-grafted regions in the SPR images were analyzed, and the average reflectivity variations of the chosen areas were plotted as a function of time. Real-time binding signals were recorded and analyzed by Data Analysis Module (DAM, Plexera Bioscience, Seattle, WA, US). […]

FoxP3 [3] = target: T1, FoxP3; experiment: FoxP3 positive CD4+ cells in peripheral blood and spleen of mice after PF administration; format: in vivo
Procedure: FIGS. 2A-2E depict that a proteolysis-targeting chimera (PROTAC) targeting FoxP3 (PF) degraded FoxP3 in vitro and in vivo. P-FoxP3 forms a ternary complex with cereblon and FoxP3. Surface plasmon resonance (SPR) assay was used to measure the equilibrium dissociation constant (KD) for the ternary complex consisting of cereblon, P-FoxP3 and FoxP3 (FIG. 2A). SPR assay was used to measure the KD for the binary complex consisting of cereblon and P-FoxP3 (FIG. 2B). Mouse splenocytes were treated in vitro with varying PF concentrations and percent of CD4+ cells staining for intracellular FoxP3 was assessed by flow cytometry. (FIG. 2C). Mice received 0.1 mmole of PF intraperitoneally (i.p.) (FIGS. 2D and 2E). 72 hours later, FoxP3 positive CD4+ cells in peripheral blood and spleen were assessed by flow cytometry (FIG. 2D). FoxP3 positive CD4+ cells in peripheral blood were assessed by flow cytometry at various timepoints following PF administration (FIG. 2E). Representative results from duplicate experiments are shown.
To assess T cells in mice, CD4+ FoxP3+ cells from serial peripheral blood draws were assessed by flow cytometry. To assess lymphocytes in mice treated with various therapies, lymph nodes and spleens were harvested to make single-cell suspensions that were activated by a CA9 peptide (AYEQLLSHL) for 4 days, and then flow cytometry was used to assess CD4, CD8, IFNγ, TNFα, CD62L CD44, and Eomes.
To determine if PF results in the degradation of FoxP3, mouse splenocytes were treated in vitro with varying concentrations of PF and percent of CD4+ cells staining for intracellular FoxP3 was assessed by flow cytometry. […] The next step was to determine if PF can decrease FoxP3 in vivo. […] 72 hours later, FoxP3 positive CD4+ cells in peripheral blood and spleen were assessed by flow cytometry. […] To understand the time course of FoxP3 decrease, serial blood draws were assessed after a single injection of PF (FIG. 2E). FoxP3 positive CD4+ cells in peripheral blood were assessed by flow cytometry at various timepoints following the PF administration. […]

Sequence of ternary complex consisting of cereblon, FoxP3, and P-FoxP3 (Q96SW2 whole entry): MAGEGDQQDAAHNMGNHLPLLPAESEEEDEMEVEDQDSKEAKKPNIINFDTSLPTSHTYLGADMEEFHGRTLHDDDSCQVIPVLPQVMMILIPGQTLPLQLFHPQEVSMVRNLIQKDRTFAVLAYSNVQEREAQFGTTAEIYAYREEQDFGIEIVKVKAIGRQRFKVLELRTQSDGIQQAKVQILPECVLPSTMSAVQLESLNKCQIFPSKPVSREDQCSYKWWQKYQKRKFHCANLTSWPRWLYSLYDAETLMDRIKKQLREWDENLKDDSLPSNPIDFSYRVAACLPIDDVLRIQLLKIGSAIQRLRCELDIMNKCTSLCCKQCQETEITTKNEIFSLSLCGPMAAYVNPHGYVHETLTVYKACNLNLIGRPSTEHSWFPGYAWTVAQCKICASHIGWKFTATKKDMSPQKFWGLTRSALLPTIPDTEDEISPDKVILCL
Sequence of ternary complex consisting of cereblon, FoxP3, and P-FoxP3 (Q9BZS1 whole entry): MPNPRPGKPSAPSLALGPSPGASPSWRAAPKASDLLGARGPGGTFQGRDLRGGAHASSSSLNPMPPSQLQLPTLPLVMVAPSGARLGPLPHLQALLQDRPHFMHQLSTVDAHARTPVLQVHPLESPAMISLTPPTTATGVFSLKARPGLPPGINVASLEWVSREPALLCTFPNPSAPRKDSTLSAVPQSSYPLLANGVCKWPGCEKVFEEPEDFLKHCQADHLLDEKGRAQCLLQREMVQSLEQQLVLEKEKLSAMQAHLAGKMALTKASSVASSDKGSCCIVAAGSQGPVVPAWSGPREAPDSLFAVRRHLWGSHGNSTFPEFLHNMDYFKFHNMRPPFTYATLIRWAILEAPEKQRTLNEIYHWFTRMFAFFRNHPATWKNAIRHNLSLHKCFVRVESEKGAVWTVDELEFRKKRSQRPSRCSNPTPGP

FoxP3 in CD4+ cells (FoxP3 [1]; fresh mouse splenocytes cultured with IL-2, 1 μm P-FoxP3, 7 days, vs without P-FoxP3): degraded FoxP3 in CD4+ cells | percent of CD4+ cells staining for intracellular FoxP3 (FoxP3 [1]; mouse splenocytes treated in vitro with varying PF concentrations): decreased in a dose-dependent manner | Kd ([2]; SPR, cereblon printed on chip, 25° C., complex of cereblon, P-FoxP3 and recombinant FoxP3, read-out: Equilibrium dissociation constant, KD ternary): 434 nM | Cooperativity, a=KD binary/KD ternary ([2]; a>1 positively cooperative, a=1 non-cooperative, a<1 negatively cooperative): 2.27 | duration of FoxP3 decrease after a single PF dose (FoxP3 [3]; spleen and peripheral lymphocytes): at least 8 days
SMILES: CSCC[C@H](NC(=O)[C@H](C)NC(=O)[C@H](Cc1ccccc1)NC(=O)[C@H](Cc1ccccc1)NC(=O)[C@@H]1CCCN1C(=O)[C@H](Cc1c[nH]c2ccccc12)NC(=O)[C@H](CCSC)NC(=O)[C@H](CCCCN)NC(=O)[C@H](CCCNC(=N)N)NC(=O)[C@H](Cc1ccccc1)NC(=O)[C@H](CO)NC(=O)[C@H](CCC(N)=O)NC(=O)[C@H](Cc1ccccc1)NC(=O)[C@H](CC(=O)O)NC(=O)[C@H](CCCNC(=N)N)NC(=O)CCOCCOCCOCCOCCNc1cccc2c1C(=O)N(C1CCC(=O)NC1=O)C2=O)C(=O)O (stereo partly shown) [PF, Pomalidomide-PEG4-RDFQSFRKMWPFFAM] ({X1-PEG4}-RDFQSFRKMWPFFAM-OH)
FoxP3 positive CD4+ cells in peripheral blood, time course (FoxP3 [3]; serial blood draws after a single injection of PF): immediately dropped as measured on day 2, and slightly came up on day 8 | FoxP3 positive CD4+ cells in peripheral blood and spleen (FoxP3 [3]; single dose 0.1 mmole i.p., 72 hours later, peripheral decrease p<0.0008): decreased 3 days later in both spleen and peripheral blood
